Laboratory results taken from publication PMC1716192, “A Plant-Derived Morphinan as a Novel Lead Compound Active against Malaria Liver Stages” (PLoS Medicine, 2006).
Where two headings read alike, the source gives them in different places.

Assays:
Format in all cases: cell-based
[1] = system: P. yoelii (265 BY strain) hepatic stages; assay: In vitro assay for P. yoelii liver stage inhibition in primary mouse hepatocytes
Method: (§1) P. yoelii (265 BY strain) and P. falciparum (NF 54 strain) sporozoites were obtained by dissection of infected Anopheles stephensi salivary glands. Primary mouse hepatocytes were isolated as previously described and seeded in eight-well Lab-Tek plastic chamber slides (VWR, Fontenay-sous-Bois, France) previously coated with rat-tail collagen I (BD Biosciences, Le Pont de Claix, France) at a density of 10^5 cells per well. Mouse hepatocytes were cultured at 37 °C in 5% CO2 in William's E medium supplemented with 10% fetal calf serum, 1% L-glutamine, 1% sodium pyruvate, 1% insulin-transferrin-selenium, 1% nonessential amino acids, and 1% penicillin-streptomycin (all from Invitrogen, Cergy-Pontoise, France), for 24 h before inoculation of P. yoelii sporozoites (10^5 per well). Human liver fragments were collected following informed consent provided from patients undergoing a partial hepatectomy. The collection and use of these tissues were undertaken in accordance with French Government ethical regulations. Primary human hepatocytes were isolated from the healthy parts of these liver biopsies as previously described. Human hepatocytes were seeded in LabTek plastic chamber slides coated with collagen, at a density of 1.8 × 10^5 cells per well and cultured at 37 °C in 5% CO2 in the same medium as above, supplemented with 10^−7 M dexamethasone (Sigma) and 2% DMSO after complete cell adherence (12–24 h), for at least 48 h before inoculation of P. falciparum sporozoites (10^5 per well). For a standard assay, the plant extract, the purified compound, or primaquine was solubilized in DMSO, further diluted in culture medium (equal DMSO concentrations of <0.3% per well), and then added to hepatocyte cultures at the time of sporozoite inoculation. Three hours later, after sporozoite penetration into hepatocytes, cultures were washed and further incubated in the presence of the drug. Culture medium containing the appropriate drug concentration was changed daily until 48 h for P. yoelii, or until 5 d for P. falciparum. Parasites were quantified on the last day of incubation. For the in vitro timing experiments, tazopsine treatment of P. yoelii and P. falciparum cultures was undertaken for different periods during the cultivation: 0 h to 3 h, 3 h to 24 h, or 24 h to 48 h after P. yoelii sporozoite inoculation (quantification at 48 h), or 0 h to 2 d, or 3 d to 5 d after P. falciparum sporozoite inoculation (quantification at 5 d). […] Cells were stained with Evans Blue (0.4%), and parasites and cells nuclei were stained with 1 μg/ml of diamidino-phenylindole (DAPI; Sigma). Parasite numbers were counted under a fluorescence microscope with a 25× light microscope objective.
(§2) IC50 and TC50 were calculated by nonlinear regression using four-parameter logistic curves on the SigmaPlot 10.0 software (http://www.systat.com). Each IC50 or TC50 is expressed as a mean between two independent experiments, followed by the standard error of the mean.

[2] = system: P. falciparum (NF 54 strain) hepatic stages; assay: In vitro assay for P. falciparum liver stage inhibition in primary human hepatocytes; settings: P. falciparum hepatic stages in primary human hepatocytes; for IC50: quantified at 5 d, read-out: IC50
Method: as §1, with “objective. IC50 values, the drug concentration at which a 50% reduction in the number of parasites was observed, as compared to the number in the DMSO control cultures, were derived from two independent experiments in which each concentration was tested in triplicate wells.” for “objective.”
as §2

[3] = system: primary mouse hepatocytes; assay: In vitro assay for cell viability (neutral red), mouse hepatocytes; settings: 48 h drug exposure
Method: (§3) Primary hepatocytes of mice or humans were prepared as above and seeded in 96-well plates coated with collagen, at a density of 5 × 10^4 and 7 × 10^4 cells per well, respectively. Drugs were added to the culture medium, which was changed daily after 24 h or 48 h of incubation for mouse and human hepatocytes, respectively. After 48 h of drug exposure (mouse hepatocytes) or 5 d (human hepatocytes), 50 μl of neutral red (Sigma) at 0.02% in phosphate-buffered saline (PBS) were added per well and incubated for 24 additional hours. Cultures were then washed with PBS and the neutral red extracted with 1% SDS from viable cells and quantified by measuring the OD540 on a microplate autoreader photometer (BioTek Instruments, Winooski, Vermont, United States).
as §2

[4] = system: primary human hepatocytes; assay: In vitro assay for cell viability (neutral red), human hepatocytes; settings: 5 d drug exposure
Method: as §3, §2

[5] = Plasmodium yoelii, Hepatocyte, 48 h

Structure (SMILES): COc1ccc2c3c1O[C@H]1[C@@H](O)C=C[C@H]4[C@@H](C2)N(C)CC[C@@]341 [codeine, reference compound]
- IC50 [1, 5]: > 100000 nM

Structure (SMILES): COC1=CC=C2[C@H]3Cc4ccc(OC)c5c4[C@@]2(CCN3C)[C@H]1O5 [thebaine, reference compound]
- IC50 [1, 5]: > 100000 nM

Structure (SMILES): COc1cc(NC(C)CCCN)c2ncccc2c1 (stereo not shown) [Primaquine, reference compound]
- IC50 [2]: 800 ± 900 nM
- IC50 ([2]; Plasmodium falciparum, Hepatocyte, 120 h): ~1000 nM
- IC90 ([2]; Plasmodium falciparum, Hepatocyte, 120 h, 5 d, read-out: IC90): 4.1 ± 0.5 µM
- IC50 ([1]; P. yoelii hepatic stages in primary mouse hepatocytes, quantified at 48 h, read-out: IC50): 640 ± 100 nM
- IC50 ([1]; Plasmodium yoelii, Hepatocyte, 48 h, P. yoelii hepatic stages in primary mouse hepatocytes, quantified at 48 h, read-out: IC50): ~1000 nM
- IC90 ([1]; Plasmodium yoelii, Hepatocyte, P. yoelii hepatic stages in primary mouse hepatocytes, 48 h, read-out: IC90): > 30 µM
- TC50 [3]: 70.5 ± 4.3 µM
- TC50 [4]: 65.2 ± 11.9 µM
